The record followed here is the supplement of paper PMC7840683.

Structures are written as SMILES. Structures can show the parent of a compound that is named as a salt. ± gives the standard deviation of the averaged measurements.

The test system of this assay is HepaRG. Kind of assay: LDH release cytotoxicity, % of total lysis control; higher = more cytotoxic. The following applies: 48 h. Summed up:
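Single-lot HepaRG cells in collagen I-coated 96-well plates were treated for 48 h in serum-free induction medium containing 0.5% DMSO with test chemicals in eight-point half-log series up to 100 µM. For total lysis, wells received 0.1% Triton X. LDH in 50 µL spent medium was assayed by resorufin fluorescence with CytoTox-ONE. Percent cytotoxicity was normalized to the on-plate vehicle and total lysis controls, with duplicates averaged.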
Background: LDH leaks from cells whose membrane has failed.

For the molecule `O=P(OC(CCl)CCl)(OC(CCl)CCl)OC(CCl)CCl` [Tris(1,3-dichloro-2-propyl) phosphate], the LDH release cytotoxicity is, setting by setting: (0.03162 µM) 0.268 ± 1.8%; (0.1 µM) -1.46 ± 0.26%; (0.3162278 µM) -0.407 ± 0.3%; (1 µM) -1.12 ± 0.76%; (3.16228 µM) -0.951 ± 0.83%; (10 µM) -0.799 ± 0.15%. Also, the LDH release cytotoxicity is 0.114 ± 0.25% (31.6228 µM) and 9.87 ± 0.53% (100 µM).
For `CCNc1nc(Cl)nc(NC(C)C)n1` [Atrazine], the LDH release cytotoxicity by setting is: (0.03162 µM) -1.43 ± 0.65%; (0.1 µM) -1.36 ± 0.23%; (0.3162278 µM) -1.63 ± 1.4%; (1 µM) -2.15 ± 1.4%; (3.16228 µM) -1.57 ± 0.28%; (10 µM) -1.86 ± 1.1%. Besides, the LDH release cytotoxicity (31.6228 µM) was -1.38 ± 0.22% and the LDH release cytotoxicity (100 µM) is -0.59 ± 0.41%.
In the case of `c1ccc2cc3c(ccc4ccccc43)cc2c1` [Benz(a)anthracene], the LDH release cytotoxicity reads like this: (0.03162 µM) 0.322 ± 0.091%; (0.1 µM) -1.2 ± 0.19%; (0.3162278 µM) -1.02 ± 0.054%; (1 µM) -1.2 ± 0.3%; (3.16228 µM) -0.916 ± 0.025%; (10 µM) -0.353 ± 0.34%. Moreover, the LDH release cytotoxicity is -1.51 ± 0.18% (31.6228 µM) and -1.17 ± 0.12% (100 µM).
For the molecule `Clc1cc(Cl)c(Cl)cc1Cl` [1,2,4,5-Tetrachlorobenzene], the LDH release cytotoxicity by setting is: (0.03162 µM) -1.15 ± 0.52%; (0.1 µM) -1.29 ± 0.64%; (0.3162278 µM) -0.238 ± 1.4%; (1 µM) -1.08 ± 0.043%; (3.16228 µM) -0.932 ± 0.35%; (10 µM) -0.175 ± 0.34%. Moreover, the LDH release cytotoxicity (31.6228 µM) was -0.116 ± 0.54% and the LDH release cytotoxicity (100 µM) came to 1.14 ± 0.66%.
For `CCC(=CC(N=O)C(N)=O)C(C)[N+](=O)[O-]` (stereo not given), the LDH release cytotoxicity was -0.841 ± 0.13% (0.03162 µM); -1.13 ± 0.46% (0.1 µM); -0.143 ± 1% (0.3162278 µM); -0.487 ± 0.72% (1 µM); -0.165 ± 0.14% (3.16228 µM); 0.0592 ± 0.5% (10 µM). In addition, the LDH release cytotoxicity (31.6228 µM) is 0.411 ± 0.23% and the LDH release cytotoxicity (100 µM) was determined as 1.12 ± 0.8%.
As for `Cc1ccc([N+](=O)[O-])cc1N` [5-Nitro-o-toluidine], the LDH release cytotoxicity (0.03162 µM) was -0.782 ± 1%; the LDH release cytotoxicity (0.1 µM) is -1.02 ± 0.28%; the LDH release cytotoxicity (0.3162278 µM) is -1.84 ± 0.91%; the LDH release cytotoxicity (1 µM) was -1.647 ± 0.013%; the LDH release cytotoxicity (3.16228 µM) is -1.55 ± 0.25%; the LDH release cytotoxicity (10 µM) is -1.24 ± 0.39%. In addition, the LDH release cytotoxicity by setting is: (31.6228 µM) -0.792 ± 0.78%; (100 µM) -0.343 ± 0.81%.
For `CC(C)NCC(O)c1ccc(O)c(O)c1` (stereo not given) [Isoproterenol hydrochloride], the LDH release cytotoxicity is, setting by setting: (0.03162 µM) -1.33 ± 0.21%; (0.1 µM) -0.922 ± 5.4%; (0.3162278 µM) 0.959 ± 0.54%; (1 µM) 2.34 ± 1.1%; (3.16228 µM) 2.16 ± 0.62%; (10 µM) -0.0702 ± 0.068%. For the same molecule, the LDH release cytotoxicity by setting is: (31.6228 µM) -1.75 ± 0.25%; (100 µM) -1.61 ± 0.35%.
On to `CCOC(=O)CC(SP(=O)(OC)OC)C(=O)OCC` (stereo not given) [Malaoxon], for which the LDH release cytotoxicity reads like this: (0.031623 µM) -0.0319 ± 0.49%; (0.1 µM) -1.49 ± 0.13%; (0.316228 µM) -2.33 ± 1.5%; (1 µM) -2.43 ± 0.17%; (3.16228 µM) -2.14 ± 0.62%; (10 µM) -2.43 ± 0.25%. The LDH release cytotoxicity (31.6228 µM) is -1.77 ± 0.98% and the LDH release cytotoxicity (100 µM) is -0.859 ± 0.23%.
In the case of `N#CN=C1SCCN1Cc1ccc(Cl)nc1` [Thiacloprid], the LDH release cytotoxicity reads like this: (0.03162 µM) -2.96 ± 0.36%; (0.1 µM) -3.73 ± 0.31%; (0.3162278 µM) -3.467 ± 0.025%; (1 µM) -3.3 ± 0.68%; (3.16228 µM) -3.46 ± 0.55%; (10 µM) -2.54 ± 0.15%. Also, the LDH release cytotoxicity by setting is: (31.6228 µM) -2.87 ± 0.072%; (100 µM) -1.64 ± 1.2%.
As for `COc1cc(C(=O)NC2CCN(C)CC2)ccc1Nc1ncc2c(n1)N(C1CCCC1)CC(F)(F)C(=O)N2C`, the LDH release cytotoxicity runs as follows: (0.02941 µM) -0.558 ± 1.5%; (0.093 µM) 1.88 ± 0.43%; (0.294092 µM) 6.47 ± 1.2%; (0.93 µM) 10.3 ± 0.45%; (2.9409182 µM) 9.21 ± 3.6%; (9.3 µM) 12.6 ± 0.61%. In addition, the LDH release cytotoxicity (29.4092 µM) stood at 88.1 ± 6.3% and the LDH release cytotoxicity (93 µM) came to 90.9 ± 9.2%.
Take `COC(=O)CCCC(=O)OC` [Dimethyl glutarate]: the LDH release cytotoxicity (0.03162 µM) is -0.9 ± 1.2%; the LDH release cytotoxicity (0.1 µM) is -1.35 ± 0.52%; the LDH release cytotoxicity (0.3162278 µM) was -1.16 ± 1.5%; the LDH release cytotoxicity (1 µM) is -1.42 ± 0.98%; the LDH release cytotoxicity (3.16228 µM) was -1.03 ± 1.1%; the LDH release cytotoxicity (10 µM) was -1.13 ± 0.84%. Further, the LDH release cytotoxicity reads like this: (31.6228 µM) -1.36 ± 0.88%; (100 µM) 3.2 ± 2.1%.
As to `ClC(Cl)(Cl)c1ccccc1` [Benzotrichloride], the LDH release cytotoxicity reads like this: (0.03162 µM) -0.669 ± 1.1%; (0.1 µM) -1.85 ± 0.77%; (0.3162278 µM) -1.72 ± 0.38%; (1 µM) -1.748 ± 0.0065%; (3.16228 µM) -1.92 ± 0.31%; (10 µM) -2.01 ± 0.6%. For the same molecule, the LDH release cytotoxicity reads like this: (31.6228 µM) -1.18 ± 0.47%; (100 µM) -0.246 ± 0.61%.
As for `CN1CCCC1=O` [N-Methyl-2-pyrrolidone], the LDH release cytotoxicity (0.03162 µM) was -2.92 ± 1.9%; the LDH release cytotoxicity (0.1 µM) was -3.16 ± 0.5%; the LDH release cytotoxicity (0.3162278 µM) is -2.9 ± 0.41%; the LDH release cytotoxicity (1 µM) is -2.75 ± 0.92%; the LDH release cytotoxicity (3.16228 µM) is -1.74 ± 1.5%; the LDH release cytotoxicity (10 µM) is -1.93 ± 0.75%. In addition, the LDH release cytotoxicity is, setting by setting: (31.6228 µM) -2.93 ± 0.35%; (100 µM) 7.04 ± 0.053%.
As for `CC1=NC(=O)N(C(C)(C)C)C(=O)C1Cl` (stereo not given) [Terbacil], the LDH release cytotoxicity runs as follows: (0.031623 µM) -1.65 ± 0.11%; (0.1 µM) -3.63 ± 0.95%; (0.316228 µM) -2.5 ± 0.94%; (1 µM) -3.38 ± 0.33%; (3.16228 µM) -2.68 ± 1.1%; (10 µM) -2.77 ± 0.39%. For the same molecule, the LDH release cytotoxicity runs as follows: (31.6228 µM) -1.74 ± 0.92%; (100 µM) 2.1 ± 0.37%.
For the molecule `CC1(C)C(C(=O)OC(C#N)c2cccc(Oc3ccccc3)c2)C1(C)C` (stereo not given) [Fenpropathrin], the LDH release cytotoxicity reads like this: (0.03162 µM) -1.16 ± 1%; (0.1 µM) -1.28 ± 0.23%; (0.3162278 µM) 0.259 ± 0.35%; (1 µM) -1.32 ± 0.98%; (3.16228 µM) -1.08 ± 0.83%; (10 µM) -0.114 ± 0.023%. Further, the LDH release cytotoxicity is, setting by setting: (31.6228 µM) 0.399 ± 0.42%; (100 µM) 1.44 ± 0.57%.
